The text below walks through data of patent US20260049140A1 (Janux Therapeutics, Inc., priority 2023, published 2026).

The target of this test is wild-type and mutant CD3 binding domains harbored within TROP2 TCE constructs. Kind of test: ELISA binding of peptide masks to wild-type and mutated TROP2 TCEs. Conditions: captured biotinylated peptide or CD3-biotin.
The mark [1] stands for this setting: read-out: TCE-3 (3075) (R100A) EC50, binding of TCE-3, anti-CD3 R100A.
[2] abbreviates: read-out: TCE-4 (3076) (H101A) EC50, binding of TCE-4, anti-CD3 H101A.
Where [3] appears, read: read-out: TCE-13 (3085) (S110A) EC50, binding of TCE-13, anti-CD3 S110A.
[4] abbreviates: read-out: TCE-14 (3086) (Y111A) EC50, binding of TCE-14, anti-CD3 Y111A.
Where [5] appears, read: read-out: TCE-15 (3087) (W112A) EC50, binding of TCE-15, anti-CD3 W112A.
[6] abbreviates: read-out: TCE-19 (3091) (W233A) EC50, binding of TCE-19, anti-CD3 W233A.
Where [7] appears, read: read-out: TCE-24 (3096) (W238A) EC50, binding of TCE-24, anti-CD3 W238A.
The mark [8] stands for this setting: read-out: TCE-26 (3098) (F240A) EC50, binding of TCE-26, anti-CD3 F240A.
[9] abbreviates: read-out: TCE-6 (3078) (N103A) EC50, binding of TCE-6, anti-CD3 N103A.
[10] abbreviates: read-out: TCE-7 (3079) (F104A) EC50, binding of TCE-7, anti-CD3 F104A.

Where two headings read alike, the source gives them in different places.

Protocol: Binding was measured in a standard ELISA format. […] Bound TCEs were detected using a standard horse radish peroxidase conjugate secondary antibody. The ELISA signal was plotted versus the log-scale concentration of TCE. The concentrations of TCE required to observe half maximal binding signal (EC50s) were calculated using Graphpad Prism software.

For the compound `CSCC[C@H](NC(=O)[C@@H]1CSSC[C@H](NC(=O)[C@H](Cc2ccc(O)cc2)NC(=O)[C@H](C)N)C(=O)NCC(=O)N2CCC[C@H]2C(=O)N[C@@H](CCC(=O)O)C(=O)N[C@@H](Cc2ccccc2)C(=O)N[C@@H](CC(=O)O)C(=O)N[C@@H](CCC(=O)O)C(=O)N[C@@H](CO)C(=O)N[C@@H](C(C)C)C(=O)NCC(=O)N1)C(=O)O` [Peptide-8], the EC50 is 1.85 nM under setting [1]; 1.36 nM under setting [2]; 0.76 nM under setting [3]; 76.9 nM under setting [4]; 11.2 nM under setting [5]; 6.43 nM under setting [6]. The EC50 is 5.66 nM under setting [7] and 5.78 nM under setting [8].

In the case of `CC(C)C[C@@H]1NC(=O)[C@H](CC(=O)O)NC(=O)[C@H](C(C)C)NC(=O)[C@H](CC(C)C)NC(=O)[C@@H](NC(=O)[C@H](CCC(=O)O)NC(=O)[C@@H](N)CO)CSSC[C@@H](C(=O)N[C@@H](Cc2ccc(O)cc2)C(=O)N[C@@H](Cc2c[nH]c3ccccc23)C(=O)O)NC(=O)[C@@H]2CCCN2C(=O)[C@H](CC(=O)O)NC(=O)[C@H](CO)NC(=O)[C@H](CCC(N)=O)NC1=O` [Peptide-5], the EC50 by setting is: (read-out: TCE-1 (2340) (wt) EC50, binding of TCE-1, wild-type anti-CD3) 0.3 nM; under setting [1], 8.73 nM; under setting [2], 6.94 nM; under setting [9], 1.69 nM; under setting [10], 1.93 nM; under setting [3], 0.95 nM. Further, the EC50 runs as follows: under setting [4], 572 nM; under setting [5], 48.2 nM; under setting [6], 0.35 nM; under setting [7], 0.29 nM; under setting [8], 0.76 nM; (read-out: TCE-27 (3099) EC50, binding of TCE-27) 0.31 nM.

As to `CC(C)C[C@@H]1NC(=O)[C@@H](NC(=O)[C@H](CCC(N)=O)NC(=O)[C@H](CO)NC(=O)CN)CSSC[C@@H](C(=O)N2CCC[C@H]2C(=O)N[C@@H](Cc2ccc(O)cc2)C(=O)O)NC(=O)[C@H](C(C)C)NC(=O)[C@H](CCC(=O)O)NC(=O)[C@H](Cc2c[nH]c3ccccc23)NC(=O)[C@H](CCC(=O)O)NC(=O)[C@@H]2CCCN2C(=O)CNC1=O` [Peptide-2], the EC50 reads like this: under setting [1], 0.58 nM; under setting [10], 0.63 nM; under setting [3], 3.65 nM; under setting [4], 49.1 nM; under setting [5], 26.4 nM; under setting [6], 6.28 nM. Further, the EC50 was 6.34 nM under setting [7] and 8.02 nM under setting [8].

Take `CC(C)C[C@@H]1NC(=O)[C@@H](NC(=O)[C@H](C)NC(=O)[C@H](CO)NC(=O)CN)CSSC[C@@H](C(=O)N2CCC[C@H]2C(=O)N[C@@H](Cc2ccc(O)cc2)C(=O)O)NC(=O)[C@H](C(C)C)NC(=O)[C@H](CCC(=O)O)NC(=O)[C@H](Cc2c[nH]c3ccccc23)NC(=O)[C@H](CCC(=O)O)NC(=O)[C@@H]2CCCN2C(=O)CNC1=O` [Peptide-11]: the EC50 reads like this: under setting [1], 0.76 nM; under setting [2], 1.05 nM; under setting [10], 0.88 nM; under setting [3], 3.82 nM; under setting [4], 95.6 nM; under setting [5], 38.2 nM. Moreover, the EC50 under setting [6] stood at 6.26 nM, the EC50 under setting [7] amounted to 7.08 nM and the EC50 under setting [8] stood at 9.2 nM.

As for `CC(C)C[C@@H]1NC(=O)[C@@H](NC(=O)[C@H](CCC(N)=O)NC(=O)[C@H](CO)NC(=O)[C@H](C)N)CSSC[C@@H](C(=O)N2CCC[C@H]2C(=O)N[C@@H](Cc2ccc(O)cc2)C(=O)O)NC(=O)[C@H](C(C)C)NC(=O)[C@H](CCC(=O)O)NC(=O)[C@H](Cc2c[nH]c3ccccc23)NC(=O)[C@H](CCC(=O)O)NC(=O)[C@@H]2CCCN2C(=O)CNC1=O` [Peptide-10], the EC50 was found to be 0.68 nM under setting [1]; 0.83 nM under setting [2]; 0.36 nM under setting [9]; 0.66 nM under setting [10]; 3.46 nM under setting [3]; 64.2 nM under setting [4]. Also, the EC50 under setting [5] turned out to be 23.4 nM, the EC50 under setting [6] came to 5.47 nM, the EC50 under setting [7] was found to be 5.33 nM and the EC50 under setting [8] worked out at 5.9 nM.

In the case of `CSCC[C@H](NC(=O)[C@@H]1CSSC[C@H](NC(=O)[C@H](Cc2ccc(O)cc2)NC(=O)[C@@H](N)C(C)C)C(=O)NCC(=O)N2CCC[C@H]2C(=O)N[C@@H](CCC(=O)O)C(=O)N[C@@H](Cc2ccccc2)C(=O)N[C@@H](CC(=O)O)C(=O)N[C@@H](CCC(=O)O)C(=O)N[C@@H](CO)C(=O)N[C@@H](C(C)C)C(=O)NCC(=O)N1)C(=O)O` [Peptide-3], the EC50 under setting [1] worked out at 1.76 nM; the EC50 under setting [9] was 0.2 nM; the EC50 under setting [3] turned out to be 0.66 nM; the EC50 under setting [4] came out at 77.7 nM; the EC50 under setting [5] was 10.5 nM; the EC50 under setting [6] was 6.46 nM. In addition, the EC50 reads like this: under setting [7], 5.96 nM; under setting [8], 5.78 nM; (read-out: TCE-28 (3100) EC50, binding of TCE-28) 0.41 nM.
